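The compound was tested at five concentrations on cells cultured in 96-well plates, with a 48-hour exposure period. At the GI50, growth is halved.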 Calls of active or inactive are those of the source. Cut-off read from the data, not from the text of the source: active = GI50 up to about 1.1 µM and inactive = higher.
What was measured:
Assay in all cases: inhibition of tumour cell growth, NCI panel, 48 h
SF-268 = tested on: SF-268
KM12 = tested on: KM12
SF-539 = tested on: SF-539
DU-145 = tested on: DU-145
CAKI-1 = tested on: CAKI-1
786-0 = tested on: 786-0
Hs-578T = tested on: Hs-578T
RPMI-8226 = tested on: RPMI-8226
RXF 393 = tested on: RXF 393
HCT-116 = tested on: HCT-116
SW-620 = tested on: SW-620
OVCAR-3 = tested on: OVCAR-3
OVCAR-5 = tested on: OVCAR-5
HT-29 = tested on: HT-29
HCC 2998 = tested on: HCC 2998
SR = tested on: SR
EKVX = tested on: EKVX
UACC-257 = tested on: UACC-257
SNB-19 = tested on: SNB-19
PC-3 = tested on: PC-3

Row | Structure (SMILES) | GI50 (SF-268) | GI50 (KM12) | GI50 (SF-539) | GI50 (DU-145) | GI50 (CAKI-1) | GI50 (786-0) | GI50 (Hs-578T) | GI50 (RPMI-8226) | GI50 (RXF 393) | GI50 (HCT-116) | GI50 (SW-620) | GI50 (OVCAR-3) | GI50 (OVCAR-5) | GI50 (HT-29) | GI50 (HCC 2998) | GI50 (SR) | GI50 (EKVX) | GI50 (UACC-257) | GI50 (SNB-19) | GI50 (PC-3)
1 | N=c1oc2ccccc2cc1C(=O)NC12CC3CC(CC(C3)C1)C2 | 34 µM (inactive) | 12 µM (inactive) | 16.9 µM (inactive) | 13.2 µM (inactive) | 7.52 µM (inactive) | 2.88 µM (inactive) | 32.4 µM (inactive) | 5.71 µM (inactive) | 6.52 µM (inactive) | 15.6 µM (inactive) | 19.3 µM (inactive) | 12.5 µM (inactive) | 37.5 µM (inactive) | 6.11 µM (inactive) | 14.5 µM (inactive) | 2.9 µM (inactive) | 21.9 µM (inactive) | 23 µM (inactive) | 24.4 µM (inactive) | 17.8 µM (inactive)
2 | N#Cc1c(Cl)cc(C#N)n2c1nc1ccccc12 | 5.6 µM (inactive) | 6.98 µM (inactive) | 7.24 µM (inactive) | 20.8 µM (inactive) | 5.64 µM (inactive) | 2.59 µM (inactive) | 25.8 µM (inactive) | 4.14 µM (inactive) | 14.2 µM (inactive) | 4.11 µM (inactive) | 3.47 µM (inactive) | 5.28 µM (inactive) | 16.4 µM (inactive) | 6.87 µM (inactive) | 21.2 µM (inactive) | 0.532 µM (active) | 20.7 µM (inactive) | 14.9 µM (inactive) | > 53.1 µM (inactive) | 18.2 µM (inactive)
3 | CN(C)CCCNc1ccc2nnn3c4ccc(OC(=O)c5ccc([N+](=O)[O-])cc5)cc4c(=O)c1c23 | 4.09 µM (inactive) | 5.64 µM (inactive) | 2.9 µM (inactive) | 2.61 µM (inactive) | 0.649 µM (active) | 1.52 µM (inactive) | 9.77 µM (inactive) | 2.44 µM (inactive) | 1.33 µM (inactive) | 1.51 µM (inactive) | 2.32 µM (inactive) | 10.9 µM (inactive) | 11.5 µM (inactive) | 2.55 µM (inactive) | 5.64 µM (inactive) | 0.574 µM (active) | 8.85 µM (inactive) | 11.7 µM (inactive) | 2.95 µM (inactive) | 2.74 µM (inactive)

Reference: ChEMBL document CHEMBL1201862, “PubChem BioAssay data set” (2004)
